Source: patent US9102638B2, “Amidobenzothiazoles and process for the preparation thereof” (COUNCIL OF SCIENTIFIC & INDUSTRIAL RESEARCH, priority 2011, dated 2015)

Experiments:
Type in all cases: cell-based
MDA-MB-435 = assay: In vitro cytotoxicity, NCI screen: MDA-MB-435 (Melanoma); conditions: Homo sapiens; MDA-MB-435, Melanoma panel, NCI protocol; read-out: GI50 values (μM conc.)
Procedure: (§1) The in vitro anticancer activity studies for these amidobenzothiazoles were carried out at the National Cancer Institute, Maryland, USA.
(§2) The amidobenzothiazoles have been tested against sixty human tumor cell lines derived from nine cancer types (leukemia cancer cell line, non-small cell lung cancer cell line, colon cancer cell line, CNS cancer cell line, melanoma cancer cell line, ovarian cancer cell line, renal cancer cell line, prostate cancer cell line and breast cancer cell lines). For these compounds results are expressed in GI50 values of that particular cancer cell at micro molar (μM) concentration as per NCI protocol.

NCI/ADR-RES = assay: In vitro cytotoxicity, NCI screen: NCI/ADR-RES (Ovarian); conditions: Homo sapiens, Ovarian panel, NCI protocol, read-out: GI50 values (μM conc.)
Procedure: as §1, §2

UACC-257 = assay: In vitro cytotoxicity, NCI screen: UACC-257 (Melanoma); conditions: Homo sapiens; UACC-257, Melanoma panel, NCI protocol; read-out: GI50 values (μM conc.)
Procedure: as §1, §2

SK-MEL-5 = assay: In vitro cytotoxicity, NCI screen: SK-MEL-5 (Melanoma); conditions: Homo sapiens; SK-MEL-5, Melanoma panel, NCI protocol; read-out: GI50 values (μM conc.)
Procedure: as §1, §2

MCF7 = assay: In vitro cytotoxicity, NCI screen: MCF7 (Breast); conditions: Homo sapiens; MCF7, Breast panel, NCI protocol; read-out: GI50 values (μM conc.)
Procedure: as §1, §2

UO-31 = assay: In vitro cytotoxicity, NCI screen: UO-31 (Renal); conditions: Homo sapiens; UO-31, Renal panel, NCI protocol; read-out: GI50 values (μM conc.)
Procedure: as §1, §2

IGROV1 = assay: In vitro cytotoxicity, NCI screen: IGROV1 (Ovarian); conditions: Homo sapiens, IGROV-1; IGROV1, Ovarian panel, NCI protocol; read-out: GI50 values (μM conc.)
Procedure: as §1, §2

SNB-75 = assay: In vitro cytotoxicity, NCI screen: SNB-75 (CNS); conditions: Homo sapiens; SNB-75, CNS panel, NCI protocol; read-out: GI50 values (μM conc.)
Procedure: as §1, §2

A549/ATCC = assay: In vitro cytotoxicity, NCI screen: A549/ATCC (Non-small cell lung); conditions: Homo sapiens, Non-small cell lung panel, NCI protocol, read-out: GI50 values (μM conc.)
Procedure: as §1, §2

K-562 = assay: In vitro cytotoxicity, NCI screen: K-562 (Leukemia); conditions: Homo sapiens, K562; read-out: GI50 values (μM conc.)
Procedure: as §1, §2

[1] = tested on: prostate cancer cell lines; assay: In vitro activity against prostate cancer cell lines (panel range); conditions: Homo sapiens, read-out: GI50 values, range over the listed compounds and the panel
Procedure: as §1, §2

COLO-205 = assay: In vitro cytotoxicity, NCI screen: COLO-205 (Colon); conditions: Homo sapiens; COLO-205, Colon panel, NCI protocol; read-out: GI50 values (μM conc.)
Procedure: as §1, §2

T-47D = assay: In vitro cytotoxicity, NCI screen: T-47D (Breast); conditions: Homo sapiens, T47D, Breast panel, NCI protocol, read-out: GI50 values (μM conc.)
Procedure: as §1, §2

BT-549 = assay: In vitro cytotoxicity, NCI screen: BT-549 (Breast); conditions: Homo sapiens, read-out: GI50 values (μM conc.)
Procedure: as §1, §2

NCI-H226 = assay: In vitro cytotoxicity, NCI screen: NCI-H226 (Non-small cell lung); conditions: Homo sapiens; NCI-H226, Non-small cell lung panel, NCI protocol; read-out: GI50 values (μM conc.)
Procedure: as §1, §2

KM12 = assay: In vitro cytotoxicity, NCI screen: KM12 (Colon); conditions: Homo sapiens; KM12, Colon panel, NCI protocol; read-out: GI50 values (μM conc.)
Procedure: as §1, §2

HCC-2998 = assay: In vitro cytotoxicity, NCI screen: HCC-2998 (Colon); conditions: Homo sapiens; HCC-2998, Colon panel, NCI protocol; read-out: GI50 values (μM conc.)
Procedure: as §1, §2

LOX IMVI = assay: In vitro cytotoxicity, NCI screen: LOX IMVI (Melanoma); conditions: Homo sapiens, Melanoma panel, NCI protocol, read-out: GI50 values (μM conc.)
Procedure: as §1, §2

SK-OV-3 = assay: In vitro cytotoxicity, NCI screen: SK-OV-3 (Ovarian); conditions: Homo sapiens; SK-OV-3, Ovarian panel, NCI protocol; read-out: GI50 values (μM conc.)
Procedure: as §1, §2

UACC-62 = assay: In vitro cytotoxicity, NCI screen: UACC-62 (Melanoma); conditions: Homo sapiens; UACC-62, Melanoma panel, NCI protocol; read-out: GI50 values (μM conc.)
Procedure: as §1, §2

786-0 = assay: In vitro cytotoxicity, NCI screen: 786-0 (Renal); conditions: Homo sapiens; 786-0, Renal panel, NCI protocol; read-out: GI50 values (μM conc.)
Procedure: as §1, §2

OVCAR-4 = assay: In vitro cytotoxicity, NCI screen: OVCAR-4 (Ovarian); conditions: Homo sapiens; OVCAR-4, Ovarian panel, NCI protocol; read-out: GI50 values (μM conc.)
Procedure: as §1, §2

DU-145 = assay: In vitro cytotoxicity, NCI screen: DU-145 (Prostate); conditions: Homo sapiens, read-out: GI50 values (μM conc.)
Procedure: as §1, §2

TK-10 = assay: In vitro cytotoxicity, NCI screen: TK-10 (Renal); conditions: Homo sapiens; TK-10, Renal panel, NCI protocol; read-out: GI50 values (μM conc.)
Procedure: as §1, §2

HS 578T = assay: In vitro cytotoxicity, NCI screen: HS 578T (Breast); conditions: Homo sapiens, read-out: GI50 values (μM conc.)
Procedure: as §1, §2

OVCAR-5 = assay: In vitro cytotoxicity, NCI screen: OVCAR-5 (Ovarian); conditions: Homo sapiens; OVCAR-5, Ovarian panel, NCI protocol; read-out: GI50 values (μM conc.)
Procedure: as §1, §2

SK-MEL-28 = assay: In vitro cytotoxicity, NCI screen: SK-MEL-28 (Melanoma); conditions: Homo sapiens; SK-MEL-28, Melanoma panel, NCI protocol; read-out: GI50 values (μM conc.)
Procedure: as §1, §2

NCI-H322M = assay: In vitro cytotoxicity, NCI screen: NCI-H322M (Non-small cell lung); conditions: Homo sapiens, Non-small cell lung panel, NCI protocol, read-out: GI50 values (μM conc.)
Procedure: as §1, §2

SW-620 = assay: In vitro cytotoxicity, NCI screen: SW-620 (Colon); conditions: Homo sapiens; SW-620, Colon panel, NCI protocol; read-out: GI50 values (μM conc.)
Procedure: as §1, §2

Row | Structure (SMILES) | GI50 (MDA-MB-435) [µM] | GI50 (NCI/ADR-RES) [µM] | GI50 (UACC-257) [µM] | GI50 (SK-MEL-5) [µM] | GI50 (MCF7) [µM] | GI50 (UO-31) [µM] | GI50 (IGROV1) [µM] | GI50 (SNB-75) [µM] | GI50 (A549/ATCC) [µM] | GI50 [1] [µM] | GI50 (COLO-205) [µM] | GI50 (T-47D) [µM] | GI50 (BT-549) [µM] | GI50 (NCI-H226) [µM] | GI50 (HCC-2998) [µM] | GI50 (LOX IMVI) [µM] | GI50 (SK-OV-3) [µM] | GI50 (786-0) [µM] | GI50 (OVCAR-4) [µM] | GI50 (DU-145) [µM] | further results
1 | COc1ccc(/C=C\c2cc(OC)c(OC)c(OC)c2)cc1OCC(=O)Nc1nc2ccccc2s1 [Compound 8a, N1-(1,3-benzothiazol-2-yl)-2-{2-methoxy-5-[(Z)-2-(3,4,5-trimethoxyphenyl)-1-ethenyl]phenoxy}acetamide] | 0.019 | 0.033 | 11 | 0.036 | 0.051 | 0.58 | 0.21 | 0.046 | 0.34 | 0.18 to 22.9 | 2.83 | 1 | 0.41 | 0.27 | 0.37 | 0.067 | 0.34 | 7.3 | 0.37 | 0.1 | GI50 (K-562): 0.042 µM; GI50 (KM12): 0.058 µM; GI50 (UACC-62): 0.063 µM
2 | COc1ccc(/C=C\c2cc(OC)c(OC)c(OC)c2)cc1OCC(=O)Nc1nc2ccc(F)cc2s1 [Compound 8e, N1-(6-fluoro-1,3-benzothiazol-2-yl)-2-{2-methoxy-5-[(Z)-2-(3,4,5-trimethoxyphenyl)-1-ethenyl]phenoxy}acetamide] | 0.33 | 2.55 | 8.69 | 1.76 | 2.3 | 2.56 | 4.17 | 4.39 | 5.99 | 0.18 to 22.9 | 7.78 | 3.39 | 16.7 | 5.6 | > 100 | 3.23 | 8 | 7.12 | 7.3 | 8.97 | GI50 (TK-10): 9.89 µM; GI50 (HS 578T): > 100 µM; GI50 (OVCAR-5): > 100 µM; GI50 (SK-MEL-28): > 100 µM; GI50 (K-562): 3.62 µM; GI50 (KM12): 4.78 µM; GI50 (UACC-62): 4.05 µM; GI50 (NCI-H322M): > 100 µM; GI50 (SW-620): 65 µM
3 | COc1ccc2nc(NC(=O)COc3cc(/C=C\c4cc(OC)c(OC)c(OC)c4)ccc3OC)sc2c1 [Compound 8g, N1-(6-methoxy-1,3-benzothiazol-2-yl)-2-{2-methoxy-5-[(Z)-2-(3,4,5-trimethoxyphenyl)-1-ethenyl]phenoxy}acetamide] | 1.16 | 2.3 | 63 | 2.68 | 2.88 | 4.31 | 7 | 1.91 | 5.19 | 0.18 to 22.9 | 3.89 | 4.03 | 21.2 | 4.51 | 7.34 | 4.17 | 4.69 | 7.52 | 5.31 | 2.04 | GI50 (TK-10): 7.54 µM; GI50 (HS 578T): 4.15 µM; GI50 (OVCAR-5): 5.89 µM; GI50 (SK-MEL-28): 4.41 µM; GI50 (K-562): 3.6 µM; GI50 (KM12): 3.12 µM; GI50 (UACC-62): 5.93 µM; GI50 (NCI-H322M): > 100 µM; GI50 (SW-620): 5.1 µM
4 | COc1ccc(/C=C\c2cc(OC)c(OC)c(OC)c2)cc1OCC(=O)Nc1nc2ccc(C(F)(F)F)cc2s1 [Compound 8i, N1-(6-(trifluoromethyl)-1,3-benzothiazol-2-yl)-2-{2-methoxy-5-[(Z)-2-(3,4,5-trimethoxyphenyl)-1-ethenyl]phenoxy}acetamide] | 1.84 | 2.12 | 40 | 2.84 | 3.16 | 3.59 | 4.48 | 1.58 | 4.46 | 0.18 to 22.9 | 17.1 | 4.79 | 5.23 | 3.17 | 4.23 | 4.01 | 3.29 | 6.96 | 4.66 | 2.51 | GI50 (TK-10): 7.03 µM; GI50 (HS 578T): 4.18 µM; GI50 (OVCAR-5): 5.98 µM; GI50 (SK-MEL-28): 3 µM; GI50 (K-562): 3.3 µM; GI50 (KM12): 3.14 µM; GI50 (UACC-62): 3.9 µM; GI50 (NCI-H322M): 5.38 µM; GI50 (SW-620): 4.65 µM
5 | COc1ccc(/C=C\c2cc(OC)c(OC)c(OC)c2)cc1OCC(=O)Nc1nc2ccc(OC(F)(F)F)cc2s1 [Compound 8j, N1-(6-(trifluoromethoxy)-1,3-benzothiazol-2-yl)-2-{2-methoxy-5-[(Z)-2-(3,4,5-trimethoxyphenyl)-1-ethenyl]phenoxy}acetamide] | 1.93 | 2.7 | 89.2 | 3.26 | 2.89 | 4.37 | 5.64 | 1.56 | 6 | 0.18 to 22.9 | 43.3 | 3.95 | 10.5 | 4.3 | 17.1 | 4.77 | 8.42 | 54.3 | 5.34 | 4.11 | GI50 (TK-10): 18.6 µM; GI50 (HS 578T): 4.33 µM; GI50 (OVCAR-5): 3.12 µM; GI50 (SK-MEL-28): 4.57 µM; GI50 (K-562): 3.43 µM; GI50 (KM12): 4.48 µM; GI50 (UACC-62): 5.11 µM; GI50 (NCI-H322M): > 100 µM; GI50 (SW-620): 5.65 µM
6 | COc1ccc(C2CC(c3cc(OC)c(OC)c(OC)c3)=NN2C(C)=O)cc1OCC(=O)Nc1nc2ccc(C(F)(F)F)cc2s1 (centres unmarked) [Compound 10i, N1-(6-(trifluoromethyl)-1,3-benzothiazol-2-yl)-2-{5-[1-acetyl-3-(3,4,5-trimethoxyphenyl)-4,5-dihydro-1H-5-pyrazolyl]-2-methoxyphenoxy}acetamide] | 3.08 | 3.13 | 3.77 | – | 4.02 | 1.93 | 5.3 | 1.55 | 2.16 | 0.18 to 22.9 | 3.94 | 2.75 | 3.55 | 2.22 | > 100 | 3.36 | 5.75 | 3.58 | 2.9 | 1.82 | GI50 (TK-10): 2.85 µM; GI50 (HS 578T): 2.48 µM; GI50 (OVCAR-5): 28.2 µM; GI50 (SK-MEL-28): 3.56 µM; GI50 (NCI-H322M): 3.67 µM; GI50 (SW-620): > 100 µM
